Values quoted from earlier work, collected in patent US9079157B2, “Protein removal agent” (Thermo Fisher Scientific Baltics, UAB, priority 2012, dated 2015).

Test system: enzymes
Conditions: referenced in the BRENDA database

Number of inhibited enzymes	SMILES
119	O=C(O)C(=O)O [oxalic, oxalic acid]
63	O=C(O)CC(=O)O [malonic, malonic acid]
0	O=C(O)CCCCCCC(=O)O [suberic, suberic acid]

More lines, now with the values behind:

SMILES	Number of inhibited enzymes
O=C(O)CCCC(=O)O [glutaric, glutaric acid]	25
O=C(O)CCCCCC(=O)O [pimelic, pimelic acid]	3
O=C(O)CC(O)(CC(=O)O)C(=O)O [citric acid]	203
O=C(O)CCC(=O)O [succinic, succinic acid]	115
O=C(O)CCCCC(=O)O [adipic, adipic acid]	10
